Data published in the NIST ThermoML archive (doi:10.1021/je100526j).
Where “and” joins values, the source holds several entries; their conditions need not be identical. Equal entries are not always repeated. ± gives the expanded uncertainty stated by the source.

What was measured:
[1] = xn = mol fraction of the nth substance listed; conditions: 101 kPa, Liquid
[2] = for mass density: Liquid; for Normal melting temperature: Crystal, visual observation

Q: Which mass density ([1]; 298.15 K, x2 = 0) does the source give for `C1CCCCC1` [cyclohexane] + c1cc[nH]c1 here?
A: 773.87 ± 0.51 kg/m3

Q: And the mass density ([1]; 308.15 K, x2 = 0)?
A: 764.38 ± 0.52 kg/m3

Q: And the mass density ([1]; 318.15 K, x2 = 0)?
A: 754.77 ± 0.54 kg/m3

Q: What about the mass density ([1]; 328.15 K, x2 = 0) of the same molecule?
A: 745.04 ± 0.55 kg/m3

Q: And the mass density ([1]; 338.15 K, x2 = 0)?
A: 735.18 ± 0.57 kg/m3

Q: Which mass density ([1]; 298.15 K, x1 = 0.0447) does the source give for `c1cc[nH]c1` [pyrrole] + c1ccccc1 here?
A: 878.11 ± 0.4 kg/m3

Q: What about the mass density ([1]; 298.15 K, x1 = 0.1287) of the same molecule?
A: 886.6 ± 0.39 kg/m3

Q: What about the mass density ([1]; 298.15 K, x1 = 0.2144) of the same molecule?
A: 894.89 ± 0.39 kg/m3

Q: And the mass density ([1]; 298.15 K, x1 = 0.3142)?
A: 904.35 ± 0.39 kg/m3

Q: And the mass density ([1]; 298.15 K, x1 = 0.3916)?
A: 911.83 ± 0.38 kg/m3

Q: What about the mass density ([1]; 298.15 K, x1 = 0.503) of the same molecule?
A: 922.04 ± 0.38 kg/m3

Q: And the mass density ([1]; 298.15 K, x1 = 0.5973)?
A: 930.57 ± 0.38 kg/m3

Q: What about the mass density ([1]; 298.15 K, x1 = 0.6693) of the same molecule?
A: 936.98 ± 0.38 kg/m3

Q: What about the mass density ([1]; 298.15 K, x1 = 0.7371) of the same molecule?
A: 942.99 ± 0.39 kg/m3

Q: And the mass density ([1]; 298.15 K, x1 = 0.8207)?
A: 950.33 ± 0.39 kg/m3

Q: And the mass density ([1]; 298.15 K, x1 = 0.8732)?
A: 954.72 ± 0.39 kg/m3

Q: What about the mass density ([1]; 298.15 K, x1 = 0.9214) of the same molecule?
A: 958.96 ± 0.39 kg/m3

Q: And the mass density ([1]; 298.15 K, x1 = 0.979)?
A: 963.65 ± 0.4 kg/m3

Q: What about the mass density ([1]; 298.15 K, x1 = 1) of the same molecule?
A: 965.54 ± 0.39 kg/m3

Q: And the mass density ([1]; 308.15 K, x1 = 0.0447)?
A: 867.49 ± 0.41 kg/m3

Q: What about the mass density ([1]; 308.15 K, x1 = 0.1287) of the same molecule?
A: 876.17 ± 0.4 kg/m3

Q: What about the mass density ([1]; 308.15 K, x1 = 0.2144) of the same molecule?
A: 884.68 ± 0.4 kg/m3

Q: What about the mass density ([1]; 308.15 K, x1 = 0.3142) of the same molecule?
A: 894.36 ± 0.4 kg/m3

Q: What about the mass density ([1]; 308.15 K, x1 = 0.3916) of the same molecule?
A: 902.01 ± 0.39 kg/m3

Q: What about the mass density ([1]; 308.15 K, x1 = 0.503) of the same molecule?
A: 912.44 ± 0.39 kg/m3

Q: What about the mass density ([1]; 308.15 K, x1 = 0.5973) of the same molecule?
A: 921.15 ± 0.39 kg/m3

Q: What about the mass density ([1]; 308.15 K, x1 = 0.6693) of the same molecule?
A: 927.73 ± 0.39 kg/m3

Q: And the mass density ([1]; 308.15 K, x1 = 0.7371)?
A: 933.85 ± 0.4 kg/m3

Q: And the mass density ([1]; 308.15 K, x1 = 0.8207)?
A: 941.34 ± 0.4 kg/m3

Q: And the mass density ([1]; 308.15 K, x1 = 0.8732)?
A: 945.81 ± 0.4 kg/m3

Q: And the mass density ([1]; 308.15 K, x1 = 0.9214)?
A: 950.13 ± 0.4 kg/m3

Q: What about the mass density ([1]; 308.15 K, x1 = 0.979) of the same molecule?
A: 954.92 ± 0.4 kg/m3

Q: And the mass density ([1]; 308.15 K, x1 = 1)?
A: 956.83 ± 0.4 kg/m3

Q: What about the mass density ([1]; 318.15 K, x1 = 0.0447) of the same molecule?
A: 856.79 ± 0.42 kg/m3

Q: And the mass density ([1]; 318.15 K, x1 = 0.1287)?
A: 865.66 ± 0.42 kg/m3

Q: And the mass density ([1]; 318.15 K, x1 = 0.2144)?
A: 874.36 ± 0.41 kg/m3

Q: What about the mass density ([1]; 318.15 K, x1 = 0.3142) of the same molecule?
A: 884.28 ± 0.41 kg/m3

Q: And the mass density ([1]; 318.15 K, x1 = 0.3916)?
A: 892.11 ± 0.41 kg/m3

Q: And the mass density ([1]; 318.15 K, x1 = 0.503)?
A: 902.77 ± 0.4 kg/m3

Q: And the mass density ([1]; 318.15 K, x1 = 0.5973)?
A: 911.66 ± 0.4 kg/m3

Q: What about the mass density ([1]; 318.15 K, x1 = 0.6693) of the same molecule?
A: 918.38 ± 0.4 kg/m3

Q: What about the mass density ([1]; 318.15 K, x1 = 0.7371) of the same molecule?
A: 924.62 ± 0.4 kg/m3

Q: And the mass density ([1]; 318.15 K, x1 = 0.8207)?
A: 932.26 ± 0.41 kg/m3

Q: And the mass density ([1]; 318.15 K, x1 = 0.8732)?
A: 936.8 ± 0.41 kg/m3

Q: And the mass density ([1]; 318.15 K, x1 = 0.9214)?
A: 941.21 ± 0.41 kg/m3

Q: And the mass density ([1]; 318.15 K, x1 = 0.979)?
A: 946.08 ± 0.41 kg/m3

Q: And the mass density ([1]; 318.15 K, x1 = 1)?
A: 948.03 ± 0.4 kg/m3

Q: What about the mass density ([1]; 328.15 K, x1 = 0.0447) of the same molecule?
A: 846 ± 0.44 kg/m3

Q: What about the mass density ([1]; 328.15 K, x1 = 0.1287) of the same molecule?
A: 855.06 ± 0.43 kg/m3

Q: And the mass density ([1]; 328.15 K, x1 = 0.2144)?
A: 863.95 ± 0.42 kg/m3

Q: What about the mass density ([1]; 328.15 K, x1 = 0.3142) of the same molecule?
A: 874.1 ± 0.42 kg/m3

Q: And the mass density ([1]; 328.15 K, x1 = 0.3916)?
A: 882.08 ± 0.42 kg/m3

Q: And the mass density ([1]; 328.15 K, x1 = 0.503)?
A: 892.98 ± 0.41 kg/m3

Q: And the mass density ([1]; 328.15 K, x1 = 0.5973)?
A: 902.07 ± 0.41 kg/m3

Q: What about the mass density ([1]; 328.15 K, x1 = 0.6693) of the same molecule?
A: 908.92 ± 0.41 kg/m3

Q: What about the mass density ([1]; 328.15 K, x1 = 0.7371) of the same molecule?
A: 915.29 ± 0.41 kg/m3

Q: What about the mass density ([1]; 328.15 K, x1 = 0.8207) of the same molecule?
A: 923.07 ± 0.42 kg/m3

Q: And the mass density ([1]; 328.15 K, x1 = 0.8732)?
A: 927.7 ± 0.42 kg/m3

Q: What about the mass density ([1]; 328.15 K, x1 = 0.9214) of the same molecule?
A: 932.19 ± 0.42 kg/m3

Q: What about the mass density ([1]; 328.15 K, x1 = 0.979) of the same molecule?
A: 937.17 ± 0.42 kg/m3

Q: And the mass density ([1]; 328.15 K, x1 = 1)?
A: 939.14 ± 0.41 kg/m3

Q: What about the mass density ([1]; 338.15 K, x1 = 0.0447) of the same molecule?
A: 835.1 ± 0.45 kg/m3

Q: And the mass density ([1]; 338.15 K, x1 = 0.1287)?
A: 844.34 ± 0.44 kg/m3

Q: And the mass density ([1]; 338.15 K, x1 = 0.2144)?
A: 853.41 ± 0.44 kg/m3

Q: And the mass density ([1]; 338.15 K, x1 = 0.3142)?
A: 863.91 ± 0.43 kg/m3

Q: What about the mass density ([1]; 338.15 K, x1 = 0.3916) of the same molecule?
A: 871.95 ± 0.43 kg/m3

Q: What about the mass density ([1]; 338.15 K, x1 = 0.503) of the same molecule?
A: 883.08 ± 0.43 kg/m3

Q: What about the mass density ([1]; 338.15 K, x1 = 0.5973) of the same molecule?
A: 892.35 ± 0.42 kg/m3

Q: What about the mass density ([1]; 338.15 K, x1 = 0.6693) of the same molecule?
A: 899.34 ± 0.42 kg/m3

Q: And the mass density ([1]; 338.15 K, x1 = 0.7371)?
A: 905.82 ± 0.42 kg/m3

Q: And the mass density ([1]; 338.15 K, x1 = 0.8207)?
A: 913.74 ± 0.43 kg/m3

Q: What about the mass density ([1]; 338.15 K, x1 = 0.8732) of the same molecule?
A: 918.46 ± 0.43 kg/m3

Q: And the mass density ([1]; 338.15 K, x1 = 0.9214)?
A: 923.04 ± 0.43 kg/m3

Q: And the mass density ([1]; 338.15 K, x1 = 0.979)?
A: 928.12 ± 0.43 kg/m3

Q: What about the mass density ([1]; 338.15 K, x1 = 1) of the same molecule?
A: 930.13 ± 0.42 kg/m3

Q: Which mass density ([2]; 298.15 K, 101 kPa) does the source give for `C1CCCCC1` [cyclohexane] here?
A: 773.87 ± 0.51 kg/m3

Q: And the mass density ([2]; 308.15 K, 101 kPa)?
A: 764.38 ± 0.52 kg/m3

Q: And the mass density ([2]; 318.15 K, 101 kPa)?
A: 754.77 ± 0.54 kg/m3

Q: And the mass density ([2]; 328.15 K, 101 kPa)?
A: 745.04 ± 0.55 kg/m3

Q: What about the mass density ([2]; 338.15 K, 101 kPa) of the same molecule?
A: 735.18 ± 0.57 kg/m3

Q: What about the Normal melting temperature [2] of the same molecule?
A: 7 ± 1.5 °C

Q: Which mass density ([2]; 298.15 K, 100 kPa, Vibrating tube method) does the source give for `c1cc[nH]c1` [pyrrole] here?
A: 965.54 ± 0.29 kg/m3

Q: What about the mass density ([2]; 298.15 K, 101 kPa, Vibrating tube method) of the same molecule?
A: 965.54 ± 0.39 kg/m3

Q: And the mass density ([2]; 298.15 K, 500 kPa, Vibrating tube method)?
A: 965.71 ± 0.29 kg/m3

Q: What about the mass density ([2]; 298.15 K, 1000 kPa, Vibrating tube method) of the same molecule?
A: 966 ± 0.29 kg/m3

Q: What about the mass density ([2]; 298.15 K, 1500 kPa, Vibrating tube method) of the same molecule?
A: 966.3 ± 0.29 kg/m3

Q: What about the mass density ([2]; 298.15 K, 2000 kPa, Vibrating tube method) of the same molecule?
A: 966.59 ± 0.3 kg/m3

Q: What about the mass density ([2]; 298.15 K, 2500 kPa, Vibrating tube method) of the same molecule?
A: 966.9 ± 0.3 kg/m3

Q: And the mass density ([2]; 298.15 K, 3000 kPa, Vibrating tube method)?
A: 967.19 ± 0.3 kg/m3

Q: What about the mass density ([2]; 298.15 K, 4000 kPa, Vibrating tube method) of the same molecule?
A: 967.77 ± 0.3 kg/m3

Q: And the mass density ([2]; 298.15 K, 5000 kPa, Vibrating tube method)?
A: 968.35 ± 0.3 kg/m3

Q: And the mass density ([2]; 308.15 K, 101 kPa, Vibrating tube method)?
A: 956.83 ± 0.4 kg/m3

Q: And the mass density ([2]; 318.15 K, 101 kPa, Vibrating tube method)?
A: 948.03 ± 0.4 kg/m3

Q: What about the mass density ([2]; 328.15 K, 101 kPa, Vibrating tube method) of the same molecule?
A: 939.14 ± 0.41 kg/m3

Q: What about the mass density ([2]; 338.15 K, 101 kPa, Vibrating tube method) of the same molecule?
A: 930.13 ± 0.42 kg/m3

Q: And the Normal melting temperature [2]?
A: -23.5 ± 0.3 °C and -23.4 ± 0.3 °C
